# Laboratory results as given in patent publication US20230123334A1, “AMINO LIPID COMPOUND, PREPARATION METHOD THEREFOR, AND APPLICATION THEREOF” (SHENZHEN SHENXIN BIOTECHNOLOGY CO., LTD., priority 2020, published 2023).
# Test system: HEK293 cells
# Experiment: Preliminary screening as mRNA vectors, EGFP mRNA transfection of HEK293 cells
# Format: cell-based
# Details: EGFP mRNA 50 ng per well, 96-well plates; percentage of GFP fluorescent cells relative to total number of cells (Hoechst)
# Summary of the method: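 Screening format: EGFP mRNA transfection (50 ng/well) into HEK293 in 10% FBS-supplemented DMEM. Percent green fluorescent cells, normalised to Hoechst nuclear count, gave the value; Lipofectamine2000 was the reference transfectant.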
row,SMILES,Absolute mRNA transfection efficiency in HEK293 cells
1,CCCCCCCCCCCCCCCCNc1nc(NCCN2CCN(C)CC2)nc(SCCCCCCCCCCCC)n1 [Compound D5S12N16],3.7%
2,CCCCCCCCCCCCSc1nc(NCC2CCN(C)CC2)nc(SCCCCCCC)n1 [Compound D10S7S12],80.4%
3,CCCCCCCCCCCCCCCCNc1nc(NCCN(CC)CC)nc(SCCCCCCCCC)n1 [Compound D7S9N16],10.9%
4,CCCCCCCCCCCCCCCSc1nc(NCCCCCC)nc(NCCN2CCOCC2)n1 [Compound D2S15N6],4.9%
5,CCCCCCCCCSc1nc(NCCN(CC)CC)nc(SCCCCCC)n1 [Compound D7S6S9],4.2%
6,CCCCCCCCCCCNc1nc(NCCCN2CCOCC2)nc(SCCCCCCCCC)n1 [Compound D8S9N11],23.5%
7,CCCCCCCCCCCCCCCCSc1nc(NCCN(CC)CC)nc(SCCCCCCC)n1 [Compound D7S7S16],10.7%
8,CCCCCCCCCCCCCCCCSc1nc(NCCCCCCCCCCC)nc(NCCN(CC)CC)n1 [Compound D7S16N11],8.3%
9,CCCCCCCCSc1nc(NCCCN2CCOCC2)nc(SCCCCCC)n1 [Compound D8S6S8],0.2%
10,CCCCCCCCCCCCCCCCNc1nc(NCCN2CCCC2)nc(SCCCCCCCC)n1 [Compound D3S8N16],14.3%
11,CCCCCCCCCCCCCCCCCCNc1nc(NCC2CCN(C)CC2)nc(SCCCCCCCCCCCCCCCCCC)n1 [Compound D10S18N18],0.1%
12,CCCCCCCCNc1nc(NCCN2CCCCC2)nc(SCCCCCCC)n1 [Compound D4S7N8],0.5%
13,CCCCCCCCCCCCCCCCNc1nc(NCCCN(C)C)nc(SCCCCCCCC)n1 [Compound D6S8N16],67.0%
14,CCCCCCCCCCCCCCSc1nc(NCCCN(C)C)nc(N(CCCCCCCCCCCC)CCCCCCCCCCCC)n1 [D6S14^2N12],0.1%
15,CCCCCCCCCCCCCCCCNc1nc(NCCN2CCCCC2)nc(SCCCCCCCCCCCCCCC)n1 [Compound D4S15N16],4.8%
16,CCCCCCCCCCCCCCCNc1nc(NCCN(C)C)nc(SCCCCCCCCCC)n1 [Compound D1S10N15],2.8%
17,CCCCCCCCCSc1nc(NCCCCCCC)nc(NCCN2CCN(C)CC2)n1 [Compound D5S9N7],2.6%
18,CCCCCCCCCCSc1nc(NCCCCCC)nc(NCCN2CCN(C)CC2)n1 [Compound D5S10N6],1.1%
19,CCCCCCCCCCCCCCCCCCSc1nc(NCC2CCN(C)CC2)nc(SCCCCCCC)n1 [Compound D10S7S18],90.5%
20,CCCCCCCCCCCCCNc1nc(NCCN2CCCCC2)nc(SCCCCCCCC)n1 [Compound D4S8N13],4.5%
21,CCCCCCCCCCCCCCCCCCNc1nc(NCCCN2CCOCC2)nc(SCCCCCCCCCC)n1 [Compound D8S10N18],0.1%
22,CCCCCCCCCCCCSc1nc(NCCCN2CCOCC2)nc(SCCCCCCCC)n1 [Compound D8S8S12],67.9%
23,CCCCCCCSc1nc(NCCN2CCCCC2)nc(SCCCCCCC)n1 [Compound D4S7S7],13.5%
24,CCCCCCCSc1nc(NCCN(CC)CC)nc(SCCCCCC)n1 [Compound D7S6S7],22.9%
25,CCCCCCCCCCCCCCCCSc1nc(NCCCCCCCCCCCCCCC)nc(NCCN(CC)CC)n1 [Compound D7S16N15],1.1%

row,SMILES,Absolute mRNA transfection efficiency in HEK293 cells
1,CCCCCCCCCCCCSc1nc(NCCCCCCCCC)nc(NCCCN2CCN(C)CC2)n1 [Compound D9S12N9],25.6%
2,CCCCCCCCCCCCCCCSc1nc(NCCCCCCCC)nc(NCCCN2CCN(C)CC2)n1 [Compound D9S15N8],10.8%
3,CCCCCCCCCCCCCCCCCCSc1nc(NCCCCCCCCCCC)nc(NCCN(C)C)n1 [Compound D1S18N11],1.3%
4,CCCCCCCCCCCCNc1nc(NCCN2CCN(C)CC2)nc(SCCCCCCCC)n1 [Compound D5S8N12],52.5%
5,CCCCCCCCCCCCN(CCCCCCCCCCCC)c1nc(NCCN2CCCC2)nc(SCCCCCCCC)n1 [D3S8^2N12],0.9%
6,CCCCCCCCCCCCN(CCCCCCCCCCCC)c1nc(NCCCN(C)C)nc(SCCCCCCCCCC)n1 [D6S10^2N12],0.1%
7,CCCCCCCCCCCCCCCCSc1nc(NCCCCCCCCCCCCC)nc(NCCN2CCOCC2)n1 [Compound D2S16N13],0.0%
8,CCCCCCCCSc1nc(NCCCN2CCN(C)CC2)nc(SCCCCCCCC)n1 [Compound D9S8S8],53.3%
9,CCCCCCCCSc1nc(NCCN2CCCCC2)nc(SCCCCCC)n1 [Compound D4S6S8],0.5%
10,CCCCCCCCCCCCCCCCSc1nc(NCCCCCCCC)nc(NCCCN(C)C)n1 [Compound D6S16N8],91.5%
11,CCCCCCCCCCCCSc1nc(NCCN(C)C)nc(N(CCCCCCCCCCCC)CCCCCCCCCCCC)n1 [D1S12^2N12],2.6%
12,CCCCCCCCSc1nc(NCCCN(C)C)nc(SCCCCCC)n1 [Compound D6S6S8],21.1%
13,CCCCCCCCCSc1nc(NCCCCCCCC)nc(NCCN(C)C)n1 [Compound D1S9N8],2.9%
14,CCCCCCCCCCCCCCCCSc1nc(NCCCCCCCCCCCCCCC)nc(NCCN2CCOCC2)n1 [Compound D2S16N15],0.2%
15,CCCCCCCCCCCCCCCCNc1nc(NCCN(C)C)nc(SCCCCCCCCC)n1 [Compound D1S9N16],25.6%
16,CCCCCCCCCCCCCCCCCCSc1nc(NCCCCCCCCCCCCCCC)nc(NCCCN2CCN(C)CC2)n1 [Compound D9S18N15],0.0%
17,CCCCCCCCCCCSc1nc(NCCCCCCCC)nc(NCCN2CCCCC2)n1 [Compound D4S11N8],4.3%
18,CCCCCCCCCCCSc1nc(NCCCCCC)nc(NCCN2CCCC2)n1 [Compound D3S11N6],18.1%
19,CCCCCCCCCCCCCCCCCCNc1nc(NCCN(C)C)nc(SCCCCCCC)n1 [Compound D1S7N18],35.7%
20,CCCCCCCCCCCCCCSc1nc(NCCCCCCCCCCCC)nc(NCCCN(C)C)n1 [Compound D6S14N12],17.0%
21,CCCCCCCCCCCCN(CCCCCCCCCCCC)c1nc(NCC2CCN(C)CC2)nc(SCCCCCCCCC)n1 [D10S9^2N12],7.7%
22,CCCCCCCCSc1nc(NCCCCCC)nc(NCCN2CCOCC2)n1 [Compound D2S8N6],0.7%
23,CCCCCCCCCCCCCCCCSc1nc(NCCN2CCCC2)nc(SCCCCCC)n1 [Compound D3S6S16],16.9%
24,CCCCCCCCCCCCNc1nc(NCCN(C)C)nc(SCCCCCCCC)n1 [Compound D1S8N12],17.9%
